Experimental findings from ChEMBL document CHEMBL1201862, “PubChem BioAssay data set” (2004) are described below.

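Where inhibition never reached the appropriate level, the endpoint shown equals the highest concentration tested. Otherwise, values were interpolated linearly from a five-concentration, 48-hour dose response in 96-well plates. At the GI50, growth is halved.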 Active and inactive are the calls of the source. No stated cut-off is given here; in the data, active = GI50 up to about 1.1 µM and inactive = higher. Bounds are passed on as bounds.

By GI50 is commonly meant the concentration that inhibits growth by half.

Assay in all cases: DTP human tumour cell line panel, 48 h
Test [1] has as its system BT-549.
In test [2] the test system is DMS-273.
The test system of test [3] is M19-MEL.
The test system of test [4] is SNB-78.
For test [5], the system named is KM-20L2.
Test [6] concerns XF498.
Test [7] relates to DLD-1.
Test [8] deals with HOP-18.

For `O=C(Nc1ccc2oc(=O)c(C(=O)O)cc2c1)Oc1ccccc1`, the GI50 in test [1] is > 100 µM (inactive).

Take `CC1(C)CN=C(Nc2ccc(F)c(Cl)c2)S1`: the GI50 in test [1] is > 100 µM (inactive).

With `CCN(CC)/C(Sc1ccccc1)=C(\C(Cl)=C(Cl)Cl)[N+](=O)[O-]`, the GI50 in test [1] was 15.8 µM (inactive).

`Cc1ccc(C(=O)Nc2ccc(CP(=O)(O)O)cc2CP(=O)(O)O)cc1NC(=O)Nc1cc(C(=O)Nc2ccc(CP(=O)(O)O)cc2CP(=O)(O)O)ccc1C`: in test [1], the GI50 was > 100 µM (inactive).

Consider `Nc1nnc2oc3ccc4ccccc4c3cc1-2`, for which, in test [1], the GI50 is 33.8 µM (inactive).

Turning to `O=C1CCCC2=C1CC1=C(CCCC1=O)N2c1ccc([N+](=O)[O-])cc1`, in test [1], the GI50 was > 100 µM (inactive).

On to `Cc1ccc(S(=O)(=O)OC(c2ccc(Cl)cc2Cl)C2OC(=O)c3ccccc32)cc1` (centres undefined), for which the GI50 in test [2] was 75.5 µM (inactive); in test [3] it was > 100 µM (inactive); in test [4], > 100 µM (inactive); in test [5] it was 32.7 µM (inactive); in test [6], > 100 µM (inactive).

`CC/C(Cl)=N\OC(=O)Nc1ccc(OC)cc1`: the GI50 in test [1] is 1.6 µM (inactive).

With `CCOC(=O)c1ccc(Nc2nc3ccc(C(F)(F)F)cc3nc2C(=O)OCC)cc1`, the GI50 in test [1] was > 100 µM (inactive).

Consider `C=CC(O)C#Cc1cnc(OC)nc1OC` (centres undefined), for which, in test [1], the GI50 is > 100 µM (inactive).

As for `CCOC(=O)C1NCCc2c1[nH]c1ccccc21` (centres undefined), the GI50 in test [1] was > 10 µM (inactive).

With `Cc1nc2c(C)c3c([nH]c4ccc(Cl)cc43)c(C)c2c(O)c1C`, the GI50 is 9.02 µM (inactive) in test [2]; 14.2 µM (inactive) in test [7]; 14.9 µM (inactive) in test [1]; 6.18 µM (inactive) in test [3]; > 100 µM (inactive) in test [4]; 33.8 µM (inactive) in test [8]. The GI50 in test [6] was 43.2 µM (inactive).

`CCOC(=O)C1(C#N)OC(=O)c2cnccc21` (centres undefined): the GI50 in test [1] is > 100 µM (inactive).

Take `N#CCc1c(-c2ccccc2)n(S(=O)(=O)c2ccccc2)c2ccccc12`: the GI50 in test [2], in test [7], in test [3], in test [5] and in test [6] was > 100 µM (inactive) in each case.

As to `O=S(=O)(O)c1ccccc1/N=N\c1ccc(/N=N/c2c(O)ccc3ccccc23)c(S(=O)(=O)O)c1`, the GI50 in test [1] is > 100 µM (inactive).

On to `CC(C)=CCC[C@@H](C)C1=C(O)C(=O)C(C)=C(N)C1=O`, for which the GI50 in test [1] is 42.2 µM (inactive).

With `C[n+]1cc2cc(O)c(O)cc2c2ccc3cc(O)c(O)cc3c21.c1ccncc1`, the GI50 in test [1] is 2.26 µM (inactive).

As for `NNC(=S)N/N=C/C(Cl)=C(\Cl)C(=O)O`, the GI50 in test [2], in test [7], in test [3], in test [4], in test [5] and in test [6] was > 100 µM (inactive) in each case.

For the compound `CN(C)c1ccc(/C=C2\C[C@H]3[C@@H]4CC=C5C[C@@H](O)CC[C@]5(C)[C@H]4CC[C@]3(C)C2=O)cc1`, in test [1], the GI50 was 53.5 µM (inactive).

For the compound `CC(=O)NNC(=S)N/C=C1/C(=O)C=C(C)OC1=O`, the GI50 in test [1] is > 100 µM (inactive).

Take `CC1CCC2CC1NC(=O)CCOCCC(=O)NC2(C)C` (centres undefined): the GI50 in test [1] was > 100 µM (inactive).

With `C/C(CC(=O)Nc1ccc(C)cc1)=N\NC(N)=S`, the GI50 in test [7] was 97.7 µM (inactive); in test [3], > 100 µM (inactive); in test [4], > 100 µM (inactive); in test [5] it was > 100 µM (inactive); in test [6], > 100 µM (inactive).

`CCOC(=O)c1cc2cc(CSc3ccccc3)ccc2oc1=O`: the GI50 in test [1] was > 100 µM (inactive).

Turning to `COc1ccc(N2C(=O)C3c4[nH]c5ccc(C)cc5c4C4CCC(C)CC4C3C2=O)cc1` (centres undefined), in test [1], the GI50 was > 100 µM (inactive).

With `Cc1cn(CCOCCOC(=O)NC(CCCNC(N)=O)C(=O)O)c(=O)[nH]c1=O` (centres undefined), the GI50 in test [1] is > 100 µM (inactive).

Turning to `CC(=O)O[C@H]1C#C/C=C\C#CC[C@@H]2C(=O)N(C(=O)OC(C)(C)C)[C@@H]12`, the GI50 in test [1] was 33.5 µM (inactive).

Consider `CC(=O)OCC1OC(n2c3c(cc(C#N)c2=S)CCC3)C(OC(C)=O)C(OC(C)=O)C1OC(C)=O` (centres undefined), for which the GI50 in test [1] was > 100 µM (inactive).

Take `CC(=O)N(CCc1ccccc1)C(C)(C#N)c1ccccc1` (centres undefined): the GI50 in test [1] was > 100 µM (inactive).

With `Cn1c2ccc(F)cc2c2ccc3c(c21)C(=O)C=CC3=O`, the GI50 in test [1] is 14 µM (inactive).

On to `CC(=O)OCCOCn1c2ccccc2c2c3c(c4c5ccccc5n(COCCOC(C)=O)c4c21)C(=O)N(Cc1ccccc1)C3=O`, for which the GI50 in test [2], in test [7], in test [3], in test [4] and in test [5] was > 100 µM (inactive) throughout.

Take `Cc1sccc1C(=S)Nc1ccc(Cl)c(/C=N/OC(C)(C)C)c1`: in test [1], the GI50 was 17.7 µM (inactive).

As to `COC(=O)[C@H](NC(=O)OC(C)(C)C)[C@H]1COC(C)(C)O1`, the GI50 in test [1] is > 100 µM (inactive).

In the case of `COC1OC(CBr)C(OC(=O)c2ccccc2)C(OS(=O)(=O)c2ccc(C)cc2)C1Br` (centres undefined), the GI50 in test [2], in test [3], in test [4] and in test [5] was > 100 µM (inactive) in each case.

Regarding `c1ccc(SCCP(CCP(c2ccccc2)c2ccccc2)c2ccccc2)cc1` (centres undefined), the GI50 in test [2] is 1.73 µM (inactive); in test [7], 22 µM (inactive); in test [1], 6.81 µM (inactive); in test [3] it was 10.7 µM (inactive); in test [4] it was 2.22 µM (inactive); in test [8], 2.16 µM (inactive). In addition, the GI50 in test [6] was 2.47 µM (inactive).

Regarding `CCN1C(=O)N(C)C(O)c2c1nc1ccccn1c2=O` (centres undefined), the GI50 in test [2] is 19.5 µM (inactive); in test [7], 31.4 µM (inactive); in test [3], 28.4 µM (inactive); in test [4], 28.1 µM (inactive); in test [8] it was 22.3 µM (inactive); in test [5] it was 25.5 µM (inactive). Further, the GI50 in test [6] was 26.2 µM (inactive).

Turning to `COc1ccc2/c(=C/c3ccc(N(C)C)cc3)c3cc(-c4ccccc4)[n+](C)n3c2c1`, the GI50 in test [1] is 0.0957 µM (active).

Turning to `Cc1ccc(C2SCC(=O)N2c2ccc(-n3c(-c4ccccc4)nc4ccccc4c3=O)cc2)cc1` (centres undefined), the GI50 in test [1] was 20.2 µM (inactive).

With `CCOC(=O)C1=C(C)N2CCOC2(C)C(C(=O)OC)C1c1cccc(Cl)c1` (centres undefined), the GI50 in test [2], in test [7], in test [3], in test [4], in test [8] and in test [5] was > 100 µM (inactive) each time.

As for `CC(=O)Oc1cc(-c2oc3cc(OC(C)=O)c(C4OC(CO)C(O)C(O)C4O)c(OC(C)=O)c3c(=O)c2O)c(OC(C)=O)cc1O` (centres undefined), the GI50 in test [1] is > 100 µM (inactive).

With `COC(=O)/C=C\S/C(=C(/c1ccccc1)n1ccc(C(=O)OC)n1)c1ccccc1`, in test [1], the GI50 is > 100 µM (inactive).

As to `CN(Cc1nc2c(N)nc(N)nc2nc1N)c1ccc(C(=O)NC(CCC(=O)O)C(=O)O)cc1` (centres undefined), the GI50 in test [1] is > 100 µM (inactive).

For `CC(=O)OCC(OC(C)=O)C(OC(C)=O)C(OC(C)=O)C(/C=N\Nc1nc2ccccc2c(=O)[nH]1)OC(C)=O` (centres undefined), in test [1], the GI50 was > 100 µM (inactive).

For `CCOC(=O)/C(C#N)=C(O)/C(=C/c1ccccc1Cl)NC(=O)c1ccccc1`, the GI50 in test [2] was 31.5 µM (inactive); in test [7], > 100 µM (inactive); in test [3], > 100 µM (inactive); in test [4], > 100 µM (inactive); in test [8], > 100 µM (inactive); in test [5], > 100 µM (inactive).

As for `COc1cccc(C[C@H]2COC(=O)[C@]2(O)Cc2cccc(OC)c2)c1`, the GI50 in test [1] was > 100 µM (inactive).

For the compound `O=C(NCc1cccs1)OC1CC2CCC1C2` (centres undefined), the GI50 in test [1] is > 100 µM (inactive).

With `COc1c(Cl)ccc(Cl)c1-c1nnc(-c2c(Cl)c(Cl)c(Cl)c(Cl)c2-c2nc3cc(C(=O)c4ccccc4)ccc3[nH]2)o1`, the GI50 in test [1] is 76.7 µM (inactive).

Take `O=C1c2c(c3c4ccccc4n4c3c3c2c2ccccc2n3C/C=C\C4)C(=O)N1Cc1ccccc1`: the GI50 is > 100 µM (inactive) in test [7]; > 100 µM (inactive) in test [3]; > 100 µM (inactive) in test [8]; > 100 µM (inactive) in test [5]; 31.3 µM (inactive) in test [6].

On to `CC(C)C[C@H]1[C@@H](OCc2ccccc2)COS(=O)N1[C@H](C)c1ccccc1` (some centres undefined), for which the GI50 in test [1] is 38.1 µM (inactive).

`C[C@H](CCC(=O)NCC(=O)O)[C@H]1CC[C@H]2[C@@H]3[C@H](O)C[C@@H]4C[C@H](O)CC[C@]4(C)[C@H]3CC[C@]12C`: the GI50 in test [1] was > 100 µM (inactive).

As for `C[C@H]1[C@@H](c2ccccc2)O[B-](c2ccccc2)(c2ccccc2)[N+]1(C)C`, in test [1], the GI50 is 33.5 µM (inactive).

In the case of `NC1CSc2ccccc2NC1=O` (centres undefined), the GI50 in test [1] was > 100 µM (inactive).

As for `CC12CCC(=O)[C@@]1(C)CCCC2=O` (some centres undefined), the GI50 in test [1] was > 100 µM (inactive).

In the case of `O=[N+]([O-])c1nccn1CCCNc1c2ccccc2[n+]([O-])c2ccccc12`, the GI50 in test [1] is > 100 µM (inactive).

On to `CN(C)CCC(=O)c1ccccc1`, for which the GI50 in test [2] was > 58.2 µM (inactive); in test [7] it was 19.8 µM (inactive); in test [3], 33.2 µM (inactive); in test [4], 38.2 µM (inactive); in test [8], > 56.4 µM (inactive); in test [5] it was > 43.8 µM (inactive). Besides, the GI50 in test [6] is 19.4 µM (inactive).

As for `Nc1nc(O)c2nc(N)n(Cc3ccccc3)c2n1`, the GI50 in test [2], in test [7], in test [3], in test [5] and in test [6] was > 100 µM (inactive) throughout.

Regarding `CC(=O)OCC(=O)[C@@]12OC(C)(C)O[C@@H]1C[C@H]1[C@@H]3CC(C=O)=C4C=C(OCCCl)CC[C@]4(C)[C@@]3(F)[C@@H](O)C[C@@]12C` [FORMOCORTAL], the GI50 in test [2] is 19.9 µM (inactive); in test [7], 23 µM (inactive); in test [3] it was 22.3 µM (inactive); in test [4] it was 15 µM (inactive); in test [8] it was 18.5 µM (inactive); in test [5] it was 11.8 µM (inactive). The GI50 in test [6] was 15.1 µM (inactive).

Consider `CCOC(=O)C1=C(C)NC(=S)NC1c1cccc(O)c1` (centres undefined) [MONASTROL], for which, in test [1], the GI50 is 56.6 µM (inactive).
